ChEMBL document CHEMBL1201862, “PubChem BioAssay data set” (2004)
Structures can show the parent of a compound that is named as a salt.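 In this assay, cells in 96-well plates receive the compound at five concentrations for 48 hours. Endpoints are linearly interpolated between the surrounding concentrations. GI50 = concentration required for 50% inhibition of growth.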 Active and inactive are the calls of the source. Rule as the data show it: active = GI50 up to about 1.1 µM and inactive = higher.

Columns and labels:
Test in all cases: inhibition of tumour cell growth, NCI panel, 48 h
[1] = system: DLD-1
[2] = system: RXF 631
[3] = system: KM-20L2
[4] = system: XF498
[5] = system: DMS-273
[6] = system: DMS-114
[7] = system: M19-MEL
[8] = system: SNB-78
[9] = system: HOP-18

COc1ccc(/C(=N/Nc2ccccc2)C(c2ccc(OC)cc2)C2OC(=O)c3ccccc32)cc1 (configuration not stated)
GI50 [1]: > 10 µM (inactive)
GI50 [2]: > 100 µM (inactive)
GI50 [3]: 36.6 µM (inactive)
GI50 [4]: > 100 µM (inactive)
GI50 [5]: > 100 µM (inactive)
GI50 [6]: 50 µM (inactive)

CN(C)c1ccc(/C=C(\NC(=O)c2ccccc2)c2nc3cncnc3[nH]2)cc1
GI50 [1]: > 100 µM (inactive)
GI50 [7]: > 100 µM (inactive)
GI50 [2]: > 100 µM (inactive)
GI50 [8]: > 100 µM (inactive)
GI50 [3]: > 100 µM (inactive)
GI50 [4]: > 100 µM (inactive)
GI50 [6]: > 100 µM (inactive)

O=C(CCc1nnc2s/c(=C\c3ccc4c(c3)OCO4)c(=O)n12)Nc1cc(Cl)ccc1Cl
GI50 [1]: > 100 µM (inactive)
GI50 [7]: > 100 µM (inactive)
GI50 [2]: > 100 µM (inactive)
GI50 [8]: > 100 µM (inactive)
GI50 [9]: > 100 µM (inactive)
GI50 [3]: > 100 µM (inactive)
GI50 [4]: > 100 µM (inactive)
GI50 [5]: > 55.1 µM (inactive)
GI50 [6]: > 100 µM (inactive)

CC(=O)Nc1c(C)ccc2c1C(=O)c1ccccc1C2=O
GI50 [1]: > 100 µM (inactive)
GI50 [7]: > 100 µM (inactive)
GI50 [8]: > 100 µM (inactive)
GI50 [9]: > 100 µM (inactive)
GI50 [5]: > 100 µM (inactive)
GI50 [6]: 35.2 µM (inactive)

S=C1NC(c2ccccc2)=NC(Cc2ccccc2)(c2ccccc2)N1c1ccccc1 (configuration not stated)
GI50 [1]: > 100 µM (inactive)
GI50 [7]: > 100 µM (inactive)
GI50 [2]: > 100 µM (inactive)
GI50 [8]: > 100 µM (inactive)
GI50 [9]: 97.1 µM (inactive)
GI50 [3]: > 100 µM (inactive)
GI50 [6]: > 100 µM (inactive)

CCOCN/C(N)=N\C#N
GI50 [1]: > 100 µM (inactive)
GI50 [7]: > 100 µM (inactive)
GI50 [8]: > 100 µM (inactive)
GI50 [9]: > 100 µM (inactive)
GI50 [3]: 89.1 µM (inactive)
GI50 [4]: > 100 µM (inactive)
GI50 [5]: > 100 µM (inactive)
GI50 [6]: > 100 µM (inactive)

N=C(N)Nc1nc2cc(N)ccc2o1
GI50 [1]: > 100 µM (inactive)
GI50 [7]: > 100 µM (inactive)
GI50 [2]: > 100 µM (inactive)
GI50 [8]: > 100 µM (inactive)
GI50 [9]: > 100 µM (inactive)
GI50 [3]: > 100 µM (inactive)

CCCN1CN(C(C(=O)N[C@@H]2C(=O)N3C(C(=O)O)=C(C)CSC23)c2ccc(O)cc2)CSC1=S (some centres not stated)
GI50 [1]: > 100 µM (inactive)
GI50 [7]: > 100 µM (inactive)
GI50 [8]: > 100 µM (inactive)
GI50 [9]: > 100 µM (inactive)
GI50 [3]: > 100 µM (inactive)
GI50 [4]: > 100 µM (inactive)
GI50 [5]: > 100 µM (inactive)
GI50 [6]: 52.4 µM (inactive)

CCc1ccccc1NC(=O)C(=O)C(C#N)c1ccccc1Cl (configuration not stated)
GI50 [1]: > 100 µM (inactive)
GI50 [7]: > 100 µM (inactive)
GI50 [2]: > 100 µM (inactive)
GI50 [8]: > 100 µM (inactive)
GI50 [9]: > 100 µM (inactive)
GI50 [3]: > 100 µM (inactive)
GI50 [4]: > 100 µM (inactive)
GI50 [6]: > 100 µM (inactive)

COc1c(CC(=O)c2ccccc2)c2ccccc2n1C(C)=O
GI50 [1]: > 100 µM (inactive)
GI50 [7]: > 100 µM (inactive)
GI50 [2]: > 100 µM (inactive)
GI50 [8]: > 100 µM (inactive)
GI50 [9]: > 100 µM (inactive)
GI50 [3]: > 100 µM (inactive)
GI50 [4]: > 100 µM (inactive)
GI50 [5]: > 100 µM (inactive)
GI50 [6]: > 100 µM (inactive)

O=C1C(Cl)C(c2ccc(Cl)cc2)N1n1cnc2ccccc2c1=O (configuration not stated)
GI50 [1]: > 100 µM (inactive)
GI50 [7]: > 100 µM (inactive)
GI50 [8]: > 100 µM (inactive)
GI50 [9]: 57.5 µM (inactive)
GI50 [3]: > 100 µM (inactive)
GI50 [4]: 80.7 µM (inactive)
GI50 [5]: 30.3 µM (inactive)
GI50 [6]: 42.3 µM (inactive)

Cn1cc2ccccc2c1-c1nc(N)nc(F)n1
GI50 [1]: > 100 µM (inactive)
GI50 [7]: 54.3 µM (inactive)
GI50 [2]: > 100 µM (inactive)
GI50 [8]: > 100 µM (inactive)
GI50 [3]: > 100 µM (inactive)
GI50 [4]: > 100 µM (inactive)
GI50 [5]: > 100 µM (inactive)
GI50 [6]: 85.3 µM (inactive)

CS(=O)(=O)OCCN(CCOS(C)(=O)=O)c1ccc(/C=N/N=c2/nc[nH]c3nc[nH]c23)cc1
GI50 [1]: 26.8 µM (inactive)
GI50 [7]: 20.5 µM (inactive)
GI50 [8]: 24.2 µM (inactive)
GI50 [9]: 34.6 µM (inactive)
GI50 [3]: 21.5 µM (inactive)
GI50 [4]: 21.2 µM (inactive)
GI50 [5]: 14.9 µM (inactive)
GI50 [6]: 10.9 µM (inactive)

COc1ccc2nc(NC(=O)C(=O)C(C#N)c3ccc(CC#N)cc3)sc2c1 (configuration not stated)
GI50 [1]: > 100 µM (inactive)
GI50 [7]: > 100 µM (inactive)
GI50 [8]: > 100 µM (inactive)
GI50 [9]: > 100 µM (inactive)
GI50 [3]: > 100 µM (inactive)
GI50 [5]: > 100 µM (inactive)

CCOC(=O)C(NC(=O)c1ccc(/N=N/N(C)C)cc1)C(C)C (configuration not stated)
GI50 [1]: > 100 µM (inactive)
GI50 [5]: > 100 µM (inactive)
GI50 [6]: > 100 µM (inactive)

C/N=C(/NC)N(C)c1nc(=[N+](C)C)ss1.[O-][Cl+3]([O-])([O-])[O-]
GI50 [8]: 82.8 µM (inactive)
GI50 [5]: 36.2 µM (inactive)

CCOc1ccc(NC(=O)C(=O)C(C(=O)c2ccc3ccccc3c2)C2OC(=O)c3ccccc32)cc1 (configuration not stated)
GI50 [1]: 7.87 µM (inactive)
GI50 [7]: 13.4 µM (inactive)
GI50 [8]: 4.91 µM (inactive)
GI50 [9]: 17.7 µM (inactive)
GI50 [3]: 37.6 µM (inactive)
GI50 [4]: 13.8 µM (inactive)
GI50 [5]: 7.35 µM (inactive)
GI50 [6]: 14.8 µM (inactive)

O=C1c2cc(CCl)sc2C(=O)c2ccsc21
GI50 [1]: 0.933 µM (active)
GI50 [7]: < 0.01 µM (active)
GI50 [8]: 0.292 µM (active)
GI50 [9]: 0.264 µM (active)
GI50 [3]: 1.45 µM (inactive)
GI50 [4]: 1.73 µM (inactive)
GI50 [5]: 0.306 µM (active)
GI50 [6]: 0.163 µM (active)

O=S1(=O)OCCOS(=O)(=O)C1(I)I
GI50 [1]: 16.9 µM (inactive)
GI50 [7]: 17.7 µM (inactive)
GI50 [8]: 23.2 µM (inactive)
GI50 [4]: 18 µM (inactive)
GI50 [5]: 20.6 µM (inactive)
GI50 [6]: 18 µM (inactive)

CCOC(=O)c1cc(OC(=O)CC)c2c(OC)ccc(OC)c2c1
GI50 [1]: > 100 µM (inactive)
GI50 [7]: 67.6 µM (inactive)
GI50 [9]: > 100 µM (inactive)
GI50 [3]: > 10 µM (inactive)
GI50 [4]: > 100 µM (inactive)
GI50 [5]: 35.5 µM (inactive)
GI50 [6]: 45 µM (inactive)

CNC(=O)NCCCCC(NC(=O)OCc1ccccc1)C(=O)OCc1ccccc1 (configuration not stated)
GI50 [1]: 38.2 µM (inactive)
GI50 [7]: 21.8 µM (inactive)
GI50 [2]: 23.6 µM (inactive)
GI50 [8]: 25.4 µM (inactive)
GI50 [3]: > 100 µM (inactive)
GI50 [4]: 18.3 µM (inactive)
GI50 [5]: 48.8 µM (inactive)
GI50 [6]: 23.6 µM (inactive)

CN1CCN(C)C1c1cccc(C2N(C)CCN2C)c1
GI50 [1]: > 100 µM (inactive)
GI50 [7]: > 100 µM (inactive)
GI50 [2]: > 100 µM (inactive)
GI50 [8]: > 100 µM (inactive)
GI50 [3]: > 100 µM (inactive)
GI50 [5]: > 100 µM (inactive)
GI50 [6]: > 100 µM (inactive)

O=C(C#Cc1ccccc1)NC/C=C/c1ccccc1
GI50 [1]: 43.1 µM (inactive)
GI50 [7]: 60.1 µM (inactive)
GI50 [8]: 29.9 µM (inactive)
GI50 [9]: > 100 µM (inactive)
GI50 [3]: 44.9 µM (inactive)
GI50 [6]: 46.6 µM (inactive)

CC/C(=N/O)C(C)C(=O)CCC(=O)Nc1ccc(Cl)cc1 (configuration not stated)
GI50 [1]: > 100 µM (inactive)
GI50 [7]: > 100 µM (inactive)
GI50 [8]: > 100 µM (inactive)
GI50 [9]: > 100 µM (inactive)
GI50 [3]: > 100 µM (inactive)
GI50 [4]: > 100 µM (inactive)
GI50 [5]: > 100 µM (inactive)
GI50 [6]: > 100 µM (inactive)

NC1=NS(=O)(=O)Nc2nc(-c3cccs3)[nH]c21
GI50 [1]: > 100 µM (inactive)
GI50 [7]: > 100 µM (inactive)
GI50 [9]: > 100 µM (inactive)
GI50 [3]: > 100 µM (inactive)
GI50 [5]: > 100 µM (inactive)

Nc1nc[n+](Cc2ccccc2CCO)c2[nH]cnc12
GI50 [7]: > 100 µM (inactive)
GI50 [2]: > 100 µM (inactive)
GI50 [9]: > 100 µM (inactive)
GI50 [3]: > 100 µM (inactive)
GI50 [4]: > 100 µM (inactive)
GI50 [5]: > 100 µM (inactive)
GI50 [6]: > 100 µM (inactive)

CCCCCCCCCCCCCP(=O)(O)NCC(N)=O
GI50 [1]: 43.9 µM (inactive)
GI50 [7]: 80.7 µM (inactive)
GI50 [2]: 84.3 µM (inactive)
GI50 [9]: 22 µM (inactive)
GI50 [3]: 98.6 µM (inactive)
GI50 [4]: 64.6 µM (inactive)
GI50 [6]: 32.2 µM (inactive)

C#CC1(O)CCC2[C@@H]3CCc4cc(Oc5nc(F)nc(-c6c7ccccc7cn6C)n5)ccc4C3CC[C@@]21C (some centres not stated)
GI50 [1]: > 48.2 µM (inactive)
GI50 [7]: > 100 µM (inactive)
GI50 [8]: > 100 µM (inactive)
GI50 [9]: > 100 µM (inactive)
GI50 [3]: > 100 µM (inactive)
GI50 [4]: > 100 µM (inactive)
GI50 [5]: > 66.1 µM (inactive)
GI50 [6]: 35.8 µM (inactive)

COc1cccc2c1[C@]1(O)C(O)CCCC21 (some centres not stated)
GI50 [1]: > 100 µM (inactive)
GI50 [7]: > 100 µM (inactive)
GI50 [8]: > 100 µM (inactive)
GI50 [9]: 90.4 µM (inactive)
GI50 [3]: > 100 µM (inactive)
GI50 [5]: > 100 µM (inactive)
GI50 [6]: > 100 µM (inactive)

CN(C)CCCN1c2ccccc2Sc2ccc(C(F)(F)F)cc21 [TRIFLUPROMAZINE HYDROCHLORIDE]
GI50 [1]: 17.2 µM (inactive)
GI50 [7]: 17.5 µM (inactive)
GI50 [8]: 15.7 µM (inactive)
GI50 [3]: 11.3 µM (inactive)
GI50 [5]: 14.7 µM (inactive)
GI50 [6]: 18.2 µM (inactive)
